Data reported in patent publication US12495798B2, “Nicotinamide compound and herbicidal composition comprising compound” (KOREA RESEARCH INSTITUTE OF CHEMICAL TECHNOLOGY, priority 2019, dated 2025).

Tests used:
Assay type in all cases: in vivo
indian jointvetch = assay: Herbicidal activity test against upland field weeds (soil treatment test); design: key to Soil treatment herbicidal activity, Indian jointvetch: 0 (no control); 100 (complete control); conditions: 50 g ai/ha, scale 0 (no control) to 100 (complete control)
How it was run: (§1)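 Pre-emergence soil surface spray, day after sowing, into sandy loam pots with fertilizer; compounds at 50 or 75 g a.i./ha in 50% acetone, 0.1% Tween-20. Greenhouse at 30±5 °C, 14/10 h light/dark; visual control rated 0–100 against untreated after 14 days (21 if needed).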

fall panicum [1] = assay: as above; design: key to Soil treatment herbicidal activity, Fall panicum: 0 (no control); 100 (complete control); conditions: 50 g ai/ha, scale 0 (no control) to 100 (complete control); for pest or weed control at 50 g/ha: Panicum dichotomiflorum
How it was run: as §1

black nightshade = assay: Herbicidal activity test against upland field weeds (foliar treatment test); design: key to Foliar treatment herbicidal activity, black nightshade: 0 (no control); 100 (complete control); conditions: 50 g ai/ha, scale 0-100; for pest or weed control at 50 g/ha: Solanum nigrum
How it was run: (§2)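 Greenhouse-grown plants (30±5 °C, 14/10 h light/dark) foliar hand-sprayed with compound in 50% acetone, 0.1% Tween-20 at 50 or 75 g a.i./ha. Control visually scored 0 (none) to 100 (complete) versus untreated after 14 days, or 21 days if needed.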

quack grass = assay: Herbicidal activity test against upland field weeds (soil treatment test); design: key to Soil treatment herbicidal activity, quack grass: 0 (no control); 100 (complete control); conditions: 50 g ai/ha, scale 0 (no control) to 100 (complete control)
How it was run: as §1

fall panicum [2] = assay: Herbicidal activity test against upland field weeds (foliar treatment test); conditions: Panicum dichotomiflorum, 50 g ai/ha, scale 0-100
How it was run: as §2

crabgrass [3] = assay: Herbicidal activity test against upland field weeds (soil treatment test); design: key to Soil treatment herbicidal activity, Crabgrass: 0 (no control); 100 (complete control); conditions: 50 g ai/ha, scale 0 (no control) to 100 (complete control); for pest or weed control at 50 g/ha: Digitaria sanguinalis
How it was run: as §1

rice = assay: Phytotoxicity test for upland field crops (foliar treatment test); design: key: 0 (no harm); 9 (complete withered)
How it was run: (§3)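 Phytotoxicity was rated on a 0 (no harm) to 9 (complete withered) scale relative to untreated plants, 7 and 14 days after spraying. Crops had been grown in fertilized horticultural soil under greenhouse conditions before foliar application at 19˜300 g a.i./ha.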

corn = assay: as above; design: key: 0 (no harm); 9 (complete withered)
How it was run: as §3

soybean = assay: as above; design: key: 0 (no harm); 9 (complete withered)
How it was run: as §3

cotton = assay: as above; design: key: 0 (no harm); 9 (complete withered)
How it was run: as §3

crabgrass [4] = assay: Herbicidal activity test against upland field weeds (foliar treatment test); design: key to Foliar treatment herbicidal activity, Crabgrass: 0 (no control); 100 (complete control); conditions: 50 g ai/ha, scale 0-100; for pest or weed control at 50 g/ha: Digitaria sanguinalis
How it was run: as §2

bindweed = assay: Herbicidal activity test against upland field weeds (soil treatment test); design: key to Soil treatment herbicidal activity, Bindweed: 0 (no control); 100 (complete control); conditions: 50 g ai/ha, scale 0 (no control) to 100 (complete control)
How it was run: as §1

barnyard grass = assay: Herbicidal activity test against upland field weeds (foliar treatment test); conditions: Echinochloa crus-galli, 50 g ai/ha, scale 0-100
How it was run: as §2

sorghum = assay: Herbicidal activity test against upland field weeds (soil treatment test); design: key to Soil treatment herbicidal activity, Sorghum: 0 (no control); 100 (complete control); conditions: 50 g ai/ha, scale 0 (no control) to 100 (complete control); for plant injury at 50 g/ha: Sorghum
How it was run: as §1

[5] = 50 g ai/ha, Rice (7 days after treatment)
[6] = 50 g ai/ha, Rice (14 days after treatment)
[7] = 100 g ai/ha, Rice (7 days after treatment)
[8] = 100 g ai/ha, Rice (14 days after treatment)
[9] = 50 g ai/ha, Corn (7 days after treatment)
[10] = 50 g ai/ha, Corn (14 days after treatment)
[11] = 100 g ai/ha, Corn (7 days after treatment)
[12] = 100 g ai/ha, Corn (14 days after treatment)
[13] = 50 g ai/ha, Soybean (7 days after treatment)
[14] = 50 g ai/ha, Soybean (14 days after treatment)
[15] = 100 g ai/ha, Soybean (7 days after treatment)
[16] = 100 g ai/ha, Soybean (14 days after treatment)
[17] = 50 g ai/ha, Cotton (7 days after treatment)
[18] = 50 g ai/ha, Cotton (14 days after treatment)
[19] = 100 g ai/ha, Cotton (7 days after treatment)
[20] = 100 g ai/ha, Cotton (14 days after treatment)

Structure (SMILES)	Soil treatment herbicidal activity, Indian jointvetch (indian jointvetch)	Soil treatment herbicidal activity, quack grass (quack grass)	pest or weed control at 50 g/ha (fall panicum [2])	Foliar treatment phytotoxicity, Rice (rice; [5])	Foliar treatment phytotoxicity, Rice (rice; [6])	Foliar treatment phytotoxicity, Rice (rice; [7])	Foliar treatment phytotoxicity, Rice (rice; [8])	Foliar treatment phytotoxicity, Corn (corn; [9])	Foliar treatment phytotoxicity, Corn (corn; [10])	Foliar treatment phytotoxicity, Corn (corn; [11])	Foliar treatment phytotoxicity, Corn (corn; [12])	Foliar treatment phytotoxicity, Soybean (soybean; [13])	Foliar treatment phytotoxicity, Soybean (soybean; [14])	Foliar treatment phytotoxicity, Soybean (soybean; [15])	Foliar treatment phytotoxicity, Soybean (soybean; [16])	Foliar treatment phytotoxicity, Cotton (cotton; [17])	Foliar treatment phytotoxicity, Cotton (cotton; [18])	Foliar treatment phytotoxicity, Cotton (cotton; [19])	Foliar treatment phytotoxicity, Cotton (cotton; [20])	pest or weed control at 50 g/ha (barnyard grass)	further results
Cn1nnnc1COc1nc(C(F)(F)F)ccc1C(=O)Nc1nnnn1C [Compound No. 1-1, N-(1-methyl-1H-tetrazol-5-yl)-2-((1-methyl-1H-tetrazol-5-yl)methoxy)-6-(trifluoromethyl)nicotinamide]	0	0	95%	4	8	6	9	2	2	4	4	7	0	8	9	3	0	3	7	98%	pest or weed control at 50 g/ha (fall panicum [1]): 98%; Foliar treatment herbicidal activity, black nightshade (black nightshade): 100; pest or weed control at 50 g/ha (crabgrass [3]): 98%; Foliar treatment herbicidal activity, Crabgrass (crabgrass [4]): 100; Soil treatment herbicidal activity, Bindweed (bindweed): 0; Soil treatment herbicidal activity, Sorghum (sorghum): 0
Cn1nnc(COCc2nc(C(F)(F)C(F)(F)F)ccc2C(=O)Nc2nnnn2C)n1 [Compound No. 2-81, N-(1-methyl-1H-tetrazol-5-yl)-2-(((2-methyl-2H-tetrazol-5-yl)methoxy)methyl)-6-(perfluoroethyl)nicotinamide]	100	0	70%	5	3	6	5	2	1	2	1	5	6	6	7	4	9	4	9	80%	pest or weed control at 50 g/ha (fall panicum [1]): 98%; pest or weed control at 50 g/ha (black nightshade): 95%; Soil treatment herbicidal activity, Crabgrass (crabgrass [3]): 100; pest or weed control at 50 g/ha (crabgrass [4]): 70%; pest or weed control at 50 g/ha (bindweed): 70%; plant injury at 50 g/ha (sorghum): 50%
CON(Cc1nnn(C)n1)c1nc(C(F)(F)F)ccc1C(=O)Nc1nnnn1C [Compound No. 2-30, 2-(methoxy((2-methyl-2H-tetrazol-5-yl)methyl)amino)-N-(1-methyl-1H-tetrazol-5-yl)-6-(trifluoromethyl)nicotinamide]	100	0	60%	3	5	5	7	0	0	1	1	0	0	6	6	0	0	3	8	95%	Soil treatment herbicidal activity, Fall panicum (fall panicum [1]): 100; Foliar treatment herbicidal activity, black nightshade (black nightshade): 100; Soil treatment herbicidal activity, Crabgrass (crabgrass [3]): 100; pest or weed control at 50 g/ha (crabgrass [4]): 95%; pest or weed control at 50 g/ha (bindweed): 70%; plant injury at 50 g/ha (sorghum): 50%
Cn1nnc(COc2nc(C(F)(F)F)ccc2C(=O)Nc2nnnn2C)n1 [Compound No. 2-1, N-(1-methyl-1H-tetrazol-5-yl)-2-((2-methyl-2H-tetrazol-5-yl)methoxy)-6-(trifluoromethyl)nicotinamide]	0	0	70%	4	3	5	4	2	1	2	2	5	6	6	6	6	8	6	9	98%	Soil treatment herbicidal activity, Fall panicum (fall panicum [1]): 0; Foliar treatment herbicidal activity, black nightshade (black nightshade): 100; Soil treatment herbicidal activity, Crabgrass (crabgrass [3]): 0; pest or weed control at 50 g/ha (crabgrass [4]): 95%; Soil treatment herbicidal activity, Bindweed (bindweed): 0; Soil treatment herbicidal activity, Sorghum (sorghum): 0
Cn1ncnc1COCc1nc(C(F)(F)F)ccc1C(=O)Nc1nnnn1C [Compound No. 1-102, 2-(((1-methyl-1H-1,2,4-triazol-5-yl)methoxy)methyl)-N-(1-methyl-1H-tetrazol-5-yl)-6-(trifluoromethyl)nicotinamide]		0	70%	6	8	7	9	6	6	6	8	5	8	6	9	4	8	5	9	80%	pest or weed control at 50 g/ha (indian jointvetch): 20%; pest or weed control at 50 g/ha (fall panicum [1]): 70%; pest or weed control at 50 g/ha (black nightshade): 95%; pest or weed control at 50 g/ha (crabgrass [3]): 20%; pest or weed control at 50 g/ha (crabgrass [4]): 70%; Soil treatment herbicidal activity, Bindweed (bindweed): 0; Soil treatment herbicidal activity, Sorghum (sorghum): 0
